Data published in paper PMC5218480 (PLoS ONE, 2017).

System: MV-4-11 cells
Test: Gene expression microarray analysis (Affymetrix PrimeView) and GSEA
Type: cell-based, human
Parameters: RFU PODN (11730768_x_at) / Fold change /veh PODN (11730768_x_at) / RFU LINC00158 (11744669_a_at) / Fold change /veh LINC00158 (11744669_a_at) / RFU DUSP10 (11751237_a_at) / Fold change /veh DUSP10 (11751237_a_at) / RFU ID3 (11757404_x_at) / Fold change /veh ID3 (11757404_x_at) / RFU PLEKHG5 (11737974_s_at) / Fold change /veh PLEKHG5 (11737974_s_at) / RFU LRRC4B (11730491_at) / Fold change /veh LRRC4B (11730491_at) / RFU GIMAP4 (11747438_a_at) / Fold change /veh GIMAP4 (11747438_a_at) / RFU KRT8 (11758183_x_at) / Fold change /veh KRT8 (11758183_x_at) / RFU CNN1 (11734310_a_at) / Fold change /veh CNN1 (11734310_a_at) / RFU VPS37D (11726825_at) / Fold change /veh VPS37D (11726825_at) / RFU C10orf10 (11716522_x_at) / Fold change /veh C10orf10 (11716522_x_at) / RFU KIR2DL2 /// KIR2DL4 /// KIR2DL5A /// KIR2DL5B /// KIR2DS1 /// KIR2DS2 /// KIR2DS3 /// KIR2DS4 /// KIR3DL3 /// KIR3DL3 /// KIR3DS1 (11738374_at) / Fold change /veh KIR2DL2 /// KIR2DL4 /// KIR2DL5A /// KIR2DL5B /// KIR2DS1 /// KIR2DS2 /// KIR2DS3 /// KIR2DS4 /// KIR3DL3 /// KIR3DL3 /// KIR3DS1 (11738374_at) / RFU C1QL1 (11718748_at) / Fold change /veh C1QL1 (11718748_at) / RFU TMPRSS4 (11747572_a_at) / Fold change /veh TMPRSS4 (11747572_a_at) / RFU HAMP (11756126_x_at) / Fold change /veh HAMP (11756126_x_at) / RFU RNFT2 (11725882_a_at) / Fold change /veh RNFT2 (11725882_a_at) / RFU NR4A2 (11747474_a_at) / Fold change /veh NR4A2 (11747474_a_at) / RFU ABCC12 (11746883_a_at) / Fold change /veh ABCC12 (11746883_a_at) / RFU TMEM136 (11760407_x_at) / Fold change /veh TMEM136 (11760407_x_at) / RFU CLDN22 /// WWC2 (11732394_at) / Fold change /veh CLDN22 /// WWC2 (11732394_at) / RFU HLA-DPB1 (11760878_x_at) / Fold change /veh HLA-DPB1 (11760878_x_at) / RFU SPINT1 (11716480_a_at) / Fold change /veh SPINT1 (11716480_a_at) / RFU GAP43 (11754022_s_at) / Fold change /veh GAP43 (11754022_s_at) / RFU A4GNT (11735810_at) / Fold change /veh A4GNT (11735810_at) / RFU PRB3 (11715151_x_at) / Fold change /veh PRB3 (11715151_x_at) / RFU TUBB4B (11761932_at) / Fold change /veh TUBB4B (11761932_at) / RFU CAPN14 (11732068_a_at) / Fold change /veh CAPN14 (11732068_a_at) / RFU TMCC2 (11721928_a_at) / Fold change /veh TMCC2 (11721928_a_at) / RFU IRGQ (11745062_a_at) / Fold change /veh IRGQ (11745062_a_at) / RFU FAM174B (11720279_a_at) / Fold change /veh FAM174B (11720279_a_at) / RFU TMPRSS4 (11748680_a_at) / Fold change /veh TMPRSS4 (11748680_a_at) / RFU FAM212B (11763350_a_at) / Fold change /veh FAM212B (11763350_a_at) / RFU PLEKHG5 (11743358_a_at) / Fold change /veh PLEKHG5 (11743358_a_at) / RFU ZSCAN30 (11745921_a_at) / Fold change /veh ZSCAN30 (11745921_a_at) / RFU CMKLR1 (11741424_a_at) / Fold change /veh CMKLR1 (11741424_a_at) / RFU LOC101060620 /// MAPK8IP1 (11723275_at) / Fold change /veh LOC101060620 /// MAPK8IP1 (11723275_at) / RFU SPTSSB (11747773_x_at) / Fold change /veh SPTSSB (11747773_x_at) / RFU PRSS12 (11739890_at) / Fold change /veh PRSS12 (11739890_at) / RFU BIN1 (11741810_x_at) / Fold change /veh BIN1 (11741810_x_at) / RFU WNT11 (11732464_a_at) / Fold change /veh WNT11 (11732464_a_at) / RFU C10orf10 (11716521_a_at) / Fold change /veh C10orf10 (11716521_a_at) / RFU C5orf56 (11738089_at) / Fold change /veh C5orf56 (11738089_at) / RFU CYB561 (11721691_x_at) / Fold change /veh CYB561 (11721691_x_at) / RFU ANKRD19P (11752326_a_at) / Fold change /veh ANKRD19P (11752326_a_at) / RFU OR2T12 /// OR2T33 /// OR2T8 (11738714_s_at) / Fold change /veh OR2T12 /// OR2T33 /// OR2T8 (11738714_s_at) / RFU VCAN (11748164_a_at) / Fold change /veh VCAN (11748164_a_at) / RFU JSRP1 (11732532_at) / Fold change /veh JSRP1 (11732532_at) / RFU KRTAP10-11 (11738290_x_at) / Fold change /veh KRTAP10-11 (11738290_x_at) / RFU MYO3A (11730013_a_at) / Fold change /veh MYO3A (11730013_a_at) / RFU EBF3 (11725865_a_at) / Fold change /veh EBF3 (11725865_a_at) / RFU CAMK2N1 (11719241_x_at) / Fold change /veh CAMK2N1 (11719241_x_at) / RFU C5orf56 (11738088_a_at) / Fold change /veh C5orf56 (11738088_a_at) / RFU OLFML3 (11715873_a_at) / Fold change /veh OLFML3 (11715873_a_at) / RFU LOC100653217 /// NTM (11731650_a_at) / Fold change /veh LOC100653217 /// NTM (11731650_a_at) / RFU MAPK11 (11762145_a_at) / Fold change /veh MAPK11 (11762145_a_at) / RFU FIZ1 (11724087_x_at) / Fold change /veh FIZ1 (11724087_x_at) / RFU OASL (11726364_x_at) / Fold change /veh OASL (11726364_x_at) / RFU SOX15 (11748057_x_at) / Fold change /veh SOX15 (11748057_x_at) / RFU CD79A (11719716_a_at) / Fold change /veh CD79A (11719716_a_at) / RFU HIST1H1D (11736915_at) / Fold change /veh HIST1H1D (11736915_at) / RFU CASKIN2 (11723855_a_at) / Fold change /veh CASKIN2 (11723855_a_at) / RFU LOC730098 (11760151_x_at) / Fold change /veh LOC730098 (11760151_x_at) / RFU OR4N2 (11742367_at) / Fold change /veh OR4N2 (11742367_at) / RFU PRRT2 (11749266_a_at) / Fold change /veh PRRT2 (11749266_a_at) / RFU SNX32 (11753110_a_at) / Fold change /veh SNX32 (11753110_a_at) / RFU CDHR5 (11726645_a_at) / Fold change /veh CDHR5 (11726645_a_at) / RFU RCAN1 (11760418_a_at) / Fold change /veh RCAN1 (11760418_a_at) / RFU FAM167A (11723789_a_at) / Fold change /veh FAM167A (11723789_a_at) / RFU FAM26E (11764081_at) / Fold change /veh FAM26E (11764081_at) / RFU ISYNA1 (11749810_s_at) / Fold change /veh ISYNA1 (11749810_s_at) / RFU ACY1 (11761880_at) / Fold change /veh ACY1 (11761880_at) / RFU 11764098_at / Fold change /veh 11764098_at / RFU SAMD14 (11745864_x_at) / Fold change /veh SAMD14 (11745864_x_at) / RFU NPB (11741838_a_at) / Fold change /veh NPB (11741838_a_at) / RFU TMPRSS6 (11731388_a_at) / Fold change /veh TMPRSS6 (11731388_a_at) / RFU KRTAP10-2 (11738614_at) / Fold change /veh KRTAP10-2 (11738614_at) / RFU ARHGAP8 /// PRR5-ARHGAP8 (11727945_x_at) / Fold change /veh ARHGAP8 /// PRR5-ARHGAP8 (11727945_x_at) / RFU KRTAP5-7 /// NADSYN1 (11734609_at) / Fold change /veh KRTAP5-7 /// NADSYN1 (11734609_at) / RFU RASL12 (11751679_a_at) / Fold change /veh RASL12 (11751679_a_at) / RFU CDKN2B (11736163_a_at) / Fold change /veh CDKN2B (11736163_a_at) / RFU PRF1 (11729649_at) / Fold change /veh PRF1 (11729649_at) / RFU, ZNF638 /// ZNF638-IT1 / Fold change vs veh, ZNF638 /// ZNF638-IT1 / RFU, PANK3 / Fold change vs veh, PANK3 / RFU, SH3YL1 / Fold change vs veh, SH3YL1 / RFU, ZEB2 / Fold change vs veh, ZEB2 / RFU, NRIP1 / Fold change vs veh, NRIP1 / RFU, PTTG1IP / Fold change vs veh, PTTG1IP / RFU, CAPN2 / Fold change vs veh, CAPN2 / RFU, MED14 / Fold change vs veh, MED14 / RFU, SNORA58 / Fold change vs veh, SNORA58 / RFU, C1orf63 / Fold change vs veh, C1orf63 / RFU, LRRFIP1 / Fold change vs veh, LRRFIP1 / RFU, NDUFAF7 / Fold change vs veh, NDUFAF7 / RFU, SLC12A2 / Fold change vs veh, SLC12A2 / RFU, IBTK / Fold change vs veh, IBTK / RFU, ESF1 / Fold change vs veh, ESF1 / Fold change vs veh, TMEM50B / RFU, TAOK1 / Fold change vs veh, TAOK1 / RFU, ACBD3 / Fold change vs veh, ACBD3 / RFU, TMA16 / Fold change vs veh, TMA16 / RFU, RWDD3 / Fold change vs veh, RWDD3 / RFU, BCAT1 / Fold change vs veh, BCAT1 / RFU, EDEM3 / Fold change vs veh, EDEM3 / RFU, TMEM33 / Fold change vs veh, TMEM33 / RFU, WDR75 / Fold change vs veh, WDR75 / RFU, AHCTF1 / Fold change vs veh, AHCTF1 / RFU, TFRC / Fold change vs veh, TFRC / RFU, ZDHHC17 / Fold change vs veh, ZDHHC17 / RFU, NOM1 / Fold change vs veh, NOM1 / RFU, ARL8B / Fold change vs veh, ARL8B / RFU, ZBTB11 / Fold change vs veh, ZBTB11 / RFU, TAMM41 / Fold change vs veh, TAMM41 / RFU, KIAA1704 /// LOC100996395 / Fold change vs veh, KIAA1704 /// LOC100996395 / RFU, ING1 / Fold change vs veh, ING1 / RFU, TRMT61B / Fold change vs veh, TRMT61B / RFU, FUBP3 / Fold change vs veh, FUBP3 / RFU, TP53 / Fold change vs veh, TP53 / RFU, TNKS2 / Fold change vs veh, TNKS2 / RFU, ZFP14 / Fold change vs veh, ZFP14 / RFU, ACTR2 / Fold change vs veh, ACTR2 / RFU, PPP3R1 / Fold change vs veh, PPP3R1 / RFU, PIK3R1 / Fold change vs veh, PIK3R1 / RFU, HNRNPA1 / Fold change vs veh, HNRNPA1 / RFU, RNF170 / Fold change vs veh, RNF170 / RFU, ZNF28 / Fold change vs veh, ZNF28 / RFU, RNGTT / Fold change vs veh, RNGTT / RFU, OGT / Fold change vs veh, OGT / RFU, BRD1 / Fold change vs veh, BRD1 / RFU, MARS / Fold change vs veh, MARS / RFU, ZNF655 / Fold change vs veh, ZNF655 / RFU, FAHD1 / Fold change vs veh, FAHD1 / RFU, BDP1 / Fold change vs veh, BDP1 / RFU, LRRCC1 / Fold change vs veh, LRRCC1 / RFU, ARID1A / Fold change vs veh, ARID1A / RFU, ZNF146 / Fold change vs veh, ZNF146 / RFU, ZNF330 / Fold change vs veh, ZNF330 / RFU, GPN3 / Fold change vs veh, GPN3 / RFU, C9orf123 / Fold change vs veh, C9orf123 / RFU, N4BP2L2 / Fold change vs veh, N4BP2L2 / RFU, ARFIP1 / Fold change vs veh, ARFIP1 / RFU, FAM179B / Fold change vs veh, FAM179B / RFU, BCL10 / Fold change vs veh, BCL10 / RFU, UHRF1BP1L / Fold change vs veh, UHRF1BP1L / RFU, BET1 / Fold change vs veh, BET1 / RFU, CNOT2 / Fold change vs veh, CNOT2 / RFU, ZNF268 / Fold change vs veh, ZNF268 / Fold change vs veh, ZNF507 / RFU, DGCR2 / Fold change vs veh, DGCR2 / RFU, WDSUB1 / Fold change vs veh, WDSUB1 / Fold change vs veh, HSP90B1 /// MIR3652 / RFU, ADSS / Fold change vs veh, ADSS / RFU, GK / Fold change vs veh, GK / RFU, ZNF148 / Fold change vs veh, ZNF148 / RFU, TAF9 / Fold change vs veh, TAF9 / RFU, SLC1A5 / Fold change vs veh, SLC1A5 / RFU, SLMO2 / Fold change vs veh, SLMO2 / RFU, ABCC4 / Fold change vs veh, ABCC4 / RFU, LOC101060439 /// RAP1B / Fold change vs veh, LOC101060439 /// RAP1B / RFU, RFX7 / Fold change vs veh, RFX7 / RFU, GTPBP10 / Fold change vs veh, GTPBP10 / RFU, CNEP1R1 / Fold change vs veh, CNEP1R1 / RFU, BIVM-ERCC5 /// ERCC5 / Fold change vs veh, BIVM-ERCC5 /// ERCC5 / RFU, ILF3 / Fold change vs veh, ILF3 / RFU 11762660_at / Fold change /veh 11762660_at / RFU VCAN (11757783_s_at) / Fold change /veh VCAN (11757783_s_at) / RFU DDX43 (11728927_at) / Fold change /veh DDX43 (11728927_at) / RFU KRT8 (11758188_x_at) / Fold change /veh KRT8 (11758188_x_at) / RFU NKD1 (11759106_at) / Fold change /veh NKD1 (11759106_at) / RFU SRD5A1 (11742802_a_at) / Fold change /veh SRD5A1 (11742802_a_at) / RFU TPSAB1 /// TPSB2 (11721975_s_at) / Fold change /veh TPSAB1 /// TPSB2 (11721975_s_at) / RFU GSTM3 (11746129_a_at) / Fold change /veh GSTM3 (11746129_a_at) / RFU IL23R (11737362_x_at) / Fold change /veh IL23R (11737362_x_at) / RFU TMEM51 (11727254_a_at) / Fold change /veh TMEM51 (11727254_a_at) / RFU PIWIL2 (11732686_x_at) / Fold change /veh PIWIL2 (11732686_x_at) / RFU ORM1 (11744905_x_at) / Fold change /veh ORM1 (11744905_x_at) / RFU CCDC152 (11743942_at) / Fold change /veh CCDC152 (11743942_at) / RFU ECM1 (11717891_a_at) / Fold change /veh ECM1 (11717891_a_at) / RFU IL23R (11748794_a_at) / Fold change /veh IL23R (11748794_a_at) / RFU TNFAIP8L3 (11732012_x_at) / Fold change /veh TNFAIP8L3 (11732012_x_at) / RFU MBOAT4 (11741988_at) / Fold change /veh MBOAT4 (11741988_at) / RFU 11764193_at / Fold change /veh 11764193_at / RFU TMEM53 (11763286_at) / Fold change /veh TMEM53 (11763286_at) / RFU MAGEB2 (11727129_at) / Fold change /veh MAGEB2 (11727129_at) / RFU TMEM200A (11744735_a_at) / Fold change /veh TMEM200A (11744735_a_at) / RFU CCDC152 (11751479_a_at) / Fold change /veh CCDC152 (11751479_a_at) / RFU FAM211A (11726209_a_at) / Fold change /veh FAM211A (11726209_a_at) / RFU RGS16 (11746705_a_at) / Fold change /veh RGS16 (11746705_a_at) / RFU VCAN (11755009_s_at) / Fold change /veh VCAN (11755009_s_at) / RFU RHOB (11743442_s_at) / Fold change /veh RHOB (11743442_s_at) / RFU RGS16 (11720943_a_at) / Fold change /veh RGS16 (11720943_a_at) / RFU RGS16 (11720944_at) / Fold change /veh RGS16 (11720944_at) / RFU, VPS4B / Fold change vs veh, VPS4B / RFU, CREB1 / Fold change vs veh, CREB1 / RFU, DNAJC13 / Fold change vs veh, DNAJC13 / RFU, GNAQ / Fold change vs veh, GNAQ / RFU, CDK5R1 / Fold change vs veh, CDK5R1 / RFU, ZRANB3 / Fold change vs veh, ZRANB3 / RFU, CUL4A / Fold change vs veh, CUL4A / RFU, CCNY / Fold change vs veh, CCNY / RFU, UFL1 / Fold change vs veh, UFL1 / RFU, COG3 / Fold change vs veh, COG3 / RFU, DIAPH2 / Fold change vs veh, DIAPH2 / RFU, SKA2 / Fold change vs veh, SKA2 / RFU, AFF3 / Fold change vs veh, AFF3 / RFU, LMF1 / Fold change vs veh, LMF1 / RFU, IPO11 / Fold change vs veh, IPO11 / RFU, DFFB / Fold change vs veh, DFFB / RFU, FOXP1 / Fold change vs veh, FOXP1 / RFU, CARD8 / Fold change vs veh, CARD8 / RFU, STRN3 / Fold change vs veh, STRN3 / RFU, ADK / Fold change vs veh, ADK / RFU, RASSF2 / Fold change vs veh, RASSF2 / RFU, WIPF1 / Fold change vs veh, WIPF1 / RFU, LARP1B / Fold change vs veh, LARP1B / RFU, RASA1 / Fold change vs veh, RASA1 / RFU, RB1 / Fold change vs veh, RB1 / RFU, PPFIA1 / Fold change vs veh, PPFIA1 / RFU, MAT2A / Fold change vs veh, MAT2A / RFU, CCT5 / Fold change vs veh, CCT5 / RFU, WDR92 / Fold change vs veh, WDR92 / RFU, CUX1 / Fold change vs veh, CUX1 / RFU, TTC7A / Fold change vs veh, TTC7A / RFU, TMEM135 / Fold change vs veh, TMEM135 / RFU, DEPTOR / Fold change vs veh, DEPTOR / RFU, CPM / Fold change vs veh, CPM / RFU, DNAJB6 / Fold change vs veh, DNAJB6 / RFU, CACNA2D3 / Fold change vs veh, CACNA2D3 / RFU, DTX4 / Fold change vs veh, DTX4 / RFU, TFCP2 / Fold change vs veh, TFCP2 / RFU, GMCL1 /// GMCL1P1 / Fold change vs veh, GMCL1 /// GMCL1P1 / RFU, AEBP2 / Fold change vs veh, AEBP2 / RFU, SNHG1 /// SNORD22 /// SNORD25 /// SNORD26 /// SNORD27 /// SNORD28 /// SNORD29 /// SNORD31 / Fold change vs veh, SNHG1 /// SNORD22 /// SNORD25 /// SNORD26 /// SNORD27 /// SNORD28 /// SNORD29 /// SNORD31 / Fold change (Aza/veh), C12orf56 (ProbeSet 11735607_a_at) / Fold change (ACY-1035/veh), C12orf56 (ProbeSet 11735607_a_at) / Fold change (Aza/veh), FGFR1OP (ProbeSet 11751329_s_at) / Fold change (ACY-1035/veh), FGFR1OP (ProbeSet 11751329_s_at) / Fold change (Aza/veh), VPS36 (ProbeSet 11739960_a_at) / Fold change (ACY-1035/veh), VPS36 (ProbeSet 11739960_a_at) / RFU SYPL1 (11715823_x_at) / Fold change /veh SYPL1 (11715823_x_at) / RFU IGFBP7 (11715501_s_at) / Fold change /veh IGFBP7 (11715501_s_at) / RFU REEP3 (11722064_at) / Fold change /veh REEP3 (11722064_at) / RFU IGLL1 (11728026_x_at) / Fold change /veh IGLL1 (11728026_x_at): dose or concentration left out as unconfirmed
Conditions: ProbeSet 11743362_s_at; LIST B

Nc1ccc(-c2cccs2)cc1NC(=O)c1ccc2c(c1)cc(C1CC1)n2CCN1CCOCC1 [ACY-1035]
RFU, ADSS: 662.69 RFU
